8 molecules from ChEMBL document CHEMBL1143447, “Identification of synthetic compounds active against VRE: the role of the lipidated aminoglucose and the structure of glycopeptide binding pocket” (2005) can be followed below.

The structures appear in SMILES notation. Values after ≈ are worked out from the molar mass of the structure shown.

Format in all cases: functional
For one assay, the system named is Streptococcus pyogenes. Description: Minimum inhibitory concentration against 49 Streptococcus pyogenes C203.
In assay [1] the test system is Enterococcus faecalis. Put plainly: Minimum inhibitory concentration against 559 Enterococcus faecalis Van-A.
The subject of assay [2] is Staphylococcus aureus. Description: Minimum inhibitory concentration against 3797 Staphylococcus aureus Clin. isolate VISA.
Assay [3] concerns Enterococcus faecalis. Description: Minimum inhibitory concentration against 559 Enterococcus faecalis (isogenic of L 560).
Assay [4] relates to Enterococcus faecalis. Description: Minimum inhibitory concentration against 1139 Enterococcus faecalis teico-vanco-sensitive.
For assay [5], the system named is Enterococcus faecium. Put plainly: Minimum inhibitory concentration against 569 Enterococcus faecium clin. isolate Van-A.
The test system of assay [6] is Staphylococcus epidermidis. Description: Minimum inhibitory concentration against 147 Staphylococcus epidermidis ATCC 12228.
Assay [7] relates to Enterococcus faecalis. Put plainly: Minimum inhibitory concentration against 2981 Enterococcus faecalis clin. Isolate Van-A.
Assay [8] relates to Enterococcus faecium. Description: Minimum inhibitory concentration against 568 Enterococcus faecium (isogenic of L569).
The test system of assay [9] is Enterococcus faecium. Put plainly: Minimum inhibitory concentration against 2215 Enterococcus faecium clin. isolate Van-A.
Assay [10] deals with Staphylococcus aureus. Description: Minimum inhibitory concentration against 819 Staphylococcus aureus Smith MSSA.
In assay [11] the test system is Staphylococcus aureus. Description: Minimum inhibitory concentration against 1400 Staphylococcus aureus Clin. isolate Met-R.
Assay [12] concerns Staphylococcus aureus. Description: Minimum inhibitory concentration against 613 Staphylococcus aureus Clin. isolate Met-R.
Assay [13] deals with Staphylococcus aureus. Put plainly: Minimum inhibitory concentration against 3798 Staphylococcus aureus Clin. isolate VISA.

The term MIC denotes the smallest concentration in the dilution series that meets the test's criterion for growth inhibition. Consider `CC(C)C[C@@H](N)C(=O)N[C@@H]1Cc2ccc(c([N+](=O)[O-])c2)Oc2cc(cc(Oc3ccc([N+](=O)[O-])cc3)c2O)[C@H]([C@@H](O)C(=O)O)NC(=O)[C@H](Cc2ccccc2)NC1=O.Cl`, for which the MIC against Streptococcus pyogenes, with Enterococcus faecalis [1], in the assay with Staphylococcus aureus [2] and in the assay on Enterococcus faecalis [3] was 64 µg/mL throughout.
With `CCCCCCCCCCCC(=O)NC1C(Oc2cc3cc(c2OC)Oc2ccc(cc2[N+](=O)[O-])C[C@@H](NC(=O)[C@H](N)CC(C)C)C(=O)N[C@@H](Cc2ccccc2)C(=O)N[C@H]3[C@@H](O)C(=O)O)OC(CO)C(O)C1O.Cl` (stereo partly specified), the MIC with Enterococcus faecalis [4] worked out at 32 µg/mL; against Streptococcus pyogenes it was 32 µg/mL; in the assay with Enterococcus faecium [5], 32 µg/mL; with Enterococcus faecalis [1], 8 µg/mL; in [6], 64 µg/mL; against Enterococcus faecalis [7] it was 32 µg/mL. For the same molecule, the values for the MIC in the assay with Enterococcus faecium [8], against Enterococcus faecium [9] and in the assay on Enterococcus faecalis [3] were 64 µg/mL, 32 µg/mL and 8 µg/mL, respectively.
`CC(=O)N[C@@H]1[C@H](Oc2c3cc4cc2Oc2ccc(cc2Cl)[C@@H](O[C@@H]2O[C@@H](CO)[C@@H](O)[C@H](O)[C@@H]2NC(C)=O)[C@@H]2NC(=O)[C@H](NC(=O)[C@@H]4NC(=O)[C@H]4NC(=O)[C@@H](Cc5ccc(c(Cl)c5)O3)NC(=O)[C@H](N)c3ccc(O)c(c3)Oc3cc(O)cc4c3)c3ccc(O)c(c3)-c3c(O[C@H]4O[C@H](CO)[C@@H](O)[C@@H](O)[C@@H]4O)cc(O)cc3[C@@H](C(=O)O)NC2=O)O[C@@H](CO)[C@@H](O)[C@@H]1O`: the minimum inhibitory concentration (MIC) in the assay with Streptococcus pyogenes is at most 0.125 µg/mL; with Staphylococcus aureus [10], 1 µg/mL (≈ 0.566 µM); with Staphylococcus aureus [11], 1 µg/mL (≈ 0.566 µM); in the assay with Staphylococcus aureus [12], 1 µg/mL (≈ 0.566 µM); against Staphylococcus aureus [13], 4 µg/mL (≈ 2.26 µM); in assay [6], 2 µg/mL (≈ 1.13 µM). Also, the MIC was 16 µg/mL (≈ 9.05 µM) in the assay with Staphylococcus aureus [2] and at most 0.125 µg/mL with Enterococcus faecium [8].
On to `CCCCCCCCCCCC(=O)NC1C(Oc2c(Oc3ccc([N+](=O)[O-])cc3)cc3cc2Oc2ccc(cc2[N+](=O)[O-])C[C@@H](NC(=O)[C@H](N)CC(C)C)C(=O)N[C@@H](Cc2ccccc2)C(=O)N[C@H]3[C@H](O)C(=O)O)OC(CO)C(O)C1O.O=C(O)C(F)(F)F` (stereo partly specified), for which the MIC came to 32 µg/mL against Enterococcus faecalis [4]; 32 µg/mL in the assay with Streptococcus pyogenes; 32 µg/mL in the assay on Enterococcus faecium [5]; 8 µg/mL against Enterococcus faecalis [1]; 32 µg/mL with Staphylococcus aureus [2]; 64 µg/mL with Enterococcus faecium [8]. The molecule further yielded an MIC against Enterococcus faecalis [3] of 8 µg/mL.
Consider `COc1c(Oc2ccc([N+](=O)[O-])cc2)cc2cc1Oc1ccc(cc1[N+](=O)[O-])C[C@@H](NC(=O)[C@H](N)CC(C)C)C(=O)N[C@@H](Cc1ccccc1)C(=O)N[C@H]2[C@@H](O)C(=O)O.Cl`, for which the MIC with Enterococcus faecalis [4] was found to be 64 µg/mL; with Streptococcus pyogenes it was 16 µg/mL; against Enterococcus faecalis [1], 16 µg/mL; in the assay on Staphylococcus aureus [2] it was 16 µg/mL; against Enterococcus faecalis [3], 16 µg/mL.
Regarding `CN[C@H](CC(C)C)C(=O)N[C@H]1C(=O)N[C@@H](CC(N)=O)C(=O)N[C@H]2C(=O)N[C@H]3C(=O)N[C@H](C(=O)N[C@H](C(=O)O)c4cc(O)cc(O)c4-c4cc3ccc4O)[C@H](O)c3ccc(c(Cl)c3)Oc3cc2cc(c3O[C@@H]2O[C@H](CO)[C@@H](O)[C@H](O)[C@H]2O[C@H]2C[C@](C)(N)[C@H](O)[C@H](C)O2)Oc2ccc(cc2Cl)[C@H]1O` [VANCOMYCIN], the minimum inhibitory concentration (MIC) in the assay with Enterococcus faecalis [4] was 2 µg/mL (≈ 1.38 µM); against Streptococcus pyogenes it was at most 0.125 µg/mL; with Staphylococcus aureus [10], 1 µg/mL (≈ 0.69 µM); against Staphylococcus aureus [11], 1 µg/mL (≈ 0.69 µM); with Staphylococcus aureus [12], 1 µg/mL (≈ 0.69 µM); against Staphylococcus aureus [13], 8 µg/mL (≈ 5.52 µM). Moreover, the MIC in assay [6] was 1 µg/mL (≈ 0.69 µM); against Staphylococcus aureus [2] it was 8 µg/mL (≈ 5.52 µM); in the assay with Enterococcus faecium [8] it was 2 µg/mL (≈ 1.38 µM); in the assay with Enterococcus faecalis [3], 1 µg/mL (≈ 0.69 µM).
Turning to `CCCCCCCCCCCC(=O)NC1C(Oc2cc3cc(c2OC)Oc2ccc(cc2[N+](=O)[O-])C[C@@H](NC(=O)[C@H](N)CC(C)C)C(=O)N[C@@H](Cc2ccccc2)C(=O)N[C@H]3[C@@H](O)C(=O)NCCCC(=O)N[C@@H](C(=O)NCCCN(C)C)c2ccccc2)OC(CO)C(O)C1O.O=C(O)C(F)(F)F` (stereo partly specified), the minimal inhibitory concentration (MIC) was 32 µg/mL against Enterococcus faecalis [4]; 8 µg/mL in the assay on Streptococcus pyogenes; 8 µg/mL against Enterococcus faecium [5]; 8 µg/mL with Enterococcus faecalis [1]; 32 µg/mL against Staphylococcus aureus [12]; 16 µg/mL against Staphylococcus aureus [13]. The minimal inhibitory concentration (MIC) in [6] is 16 µg/mL; against Enterococcus faecalis [7], 32 µg/mL; in the assay on Staphylococcus aureus [2], 32 µg/mL; against Enterococcus faecium [8], 16 µg/mL; in the assay on Enterococcus faecium [9], 32 µg/mL; against Enterococcus faecalis [3] it was 16 µg/mL.
As for `CCCCCCCCCCCC(=O)NC1C(Oc2cc3cc(c2OC)Oc2ccc(cc2[N+](=O)[O-])C[C@@H](NC(=O)[C@H](N)CC(C)C)C(=O)N[C@@H](Cc2ccccc2)C(=O)N[C@H]3[C@H](O)C(=O)O)OC(CO)C(O)C1O.Cl` (stereo partly specified), in the assay with Streptococcus pyogenes, the minimum inhibitory concentration (MIC) turned out to be 32 µg/mL.
